# According to patent publication US11008337B2, “Chiral diaryl macrocycles as modulators of protein kinases” (Turning Point Therapeutics, Inc., priority 2015, dated 2021):
# Tests used:
# Type in all cases: cell-based
# EML4-ALK Ba/F3 = target: T1, EML4-ALK Ba/F3 (Homo sapiens, UniProt Q9UM73); assay: Cell proliferation assay, EML4-ALK Ba/F3 stable cell line (CellTiter-Glo); conditions: Ba/F3-EML4-ALK wild type (variant 1) cells, 72 hours compound incubation; read-out: Cell Proliferation IC50 EML4-ALK Ba/F3
# T1 construct: fused on or other part: Q9HC35 (Echinoderm microtubule-associated protein-like 4)
# How it was run: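 Ba/F3 cells were lentivirally transduced with wild-type CD74-ROS1 or EML4-ALK (variant 1), selected with puromycin and made IL-3-independent. Cells (3000/well) were seeded overnight and then treated with the compounds at various concentrations for 72 h. Proliferation was read by CellTiter-Glo ATP luminescence, and IC50 values were fitted.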
# CD74-ROS1 Ba/F3 = target: T2, CD74-ROS1 Ba/F3 (Homo sapiens, UniProt P08922); assay: Cell proliferation assay, CD74-ROS1 Ba/F3 stable cell line (CellTiter-Glo); conditions: Ba/F3-CD74-ROS1 wild type cells, 72 hours compound incubation; read-out: Cell Proliferation IC50 CD74-ROS1 Ba/F3
# T2 construct: fused on or other part: P04233 (HLA class II histocompatibility antigen gamma chain)
# Text: Creation of CD74-ROS1 and EML4-ALK Ba/F3 Stable Cell Lines and Cell Proliferation Assays.
# The CD74-ROS1 wild-type gene and EML4-ALK wild-type gene (variant 1) were synthesized at GenScript and cloned into pCDH-CMV-MCS-EF1-Puro plasmid (System Biosciences, Inc). Ba/F3-CD74-ROS1 and Ba/F3-EML4-ALK wild type cell lines were generated by infecting Ba/F3 cells with lentivirus containing CD74-ROS1 wide-type and EML4-ALK wild type. Stable cell lines were selected by puromycin treatment, followed by IL-3 withdrawal. 3000 cells were seeded in 384 well white plate overnight before compound treatment. Cell proliferation was measured using CellTiter-Glo luciferase-based ATP detection assay (Promega) following the manufactures's protocol after 72 hours of various concentration of compound incubation. IC50 determinations were performed using GraphPad Prism software (GraphPad, Inc., San Diego, Calif.).
# [1] = system: Colorectal cell lines KM 12 (harboring endogenous TPM3-TRKA fusion gene); assay: Cell proliferation assay, KM12 cells (CellTiter-Glo); conditions: Homo sapiens, 72 hours incubation
# [2] = system: essential thrombocythemia cell line SET-2 cells (harboring endogenous JAK2 point mutation); assay: Cell proliferation assay, SET-2 cells (CellTiter-Glo); conditions: Homo sapiens, 72 hours incubation, read-out: Cell Proliferation IC50 SET2
# How it was run: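 Karpas-299 (NPM-ALK) or SET-2 (JAK2 […]) cells in RPMI with 10% FBS, seeded 24 h before compound addition. Viability read by CellTiter-Glo ATP luminescence after 72 h incubation; IC50 derived from dose–response curves.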
# [3] = system: T cell lymphoma Karpas-299 cell line (harboring endogenous NPM-ALK fusion gene); assay: Cell proliferation assay, Karpas-299 cells (CellTiter-Glo); conditions: Homo sapiens, 72 hours incubation
# Procedure: Cell Proliferation Assays.
# Colorectal cell lines KM 12 (harboring endogenous TPM3-TRKA fusion gene) cells were cultured in DMEM medium, supplemented with 10% fetal bovine serum and 100 U/mL of penicillin/streptomycin. 5000 cells were seeded in 384 well white plate for 24 hours before compounds treatment. Cell proliferation was measured using CellTiter-Glo luciferase-based ATP detection assay (Promega) following the manufactures's protocol after 72 hours incubation. IC50 determinations were performed using GraphPad Prism software (GraphPad, Inc., San Diego, Calif.). Alternatively, essential thrombocythemia cell line SET-2 cells (harboring endogenous JAK2 […] point mutation) or T cell lymphoma Karpas-299 cell line (harboring endogenous NPM-ALK fusion gene) were cultured in RPMI medium, supplemented with 10% fetal bovine serum and 100 U/mL of penicillin/streptomycin. 5000 cells were seeded in 384 well white plate for 24 hours before compounds treatment. Cell proliferation was measured using CellTiter-Glo luciferase-based ATP detection assay (Promega) following the manufactures's protocol after 72 hours incubation. IC50 determinations were performed using GraphPad Prism software (GraphPad, Inc., San Diego, Calif.).
# T1 sequence (Q9UM73 whole entry, change not shown, the tested form may be a part): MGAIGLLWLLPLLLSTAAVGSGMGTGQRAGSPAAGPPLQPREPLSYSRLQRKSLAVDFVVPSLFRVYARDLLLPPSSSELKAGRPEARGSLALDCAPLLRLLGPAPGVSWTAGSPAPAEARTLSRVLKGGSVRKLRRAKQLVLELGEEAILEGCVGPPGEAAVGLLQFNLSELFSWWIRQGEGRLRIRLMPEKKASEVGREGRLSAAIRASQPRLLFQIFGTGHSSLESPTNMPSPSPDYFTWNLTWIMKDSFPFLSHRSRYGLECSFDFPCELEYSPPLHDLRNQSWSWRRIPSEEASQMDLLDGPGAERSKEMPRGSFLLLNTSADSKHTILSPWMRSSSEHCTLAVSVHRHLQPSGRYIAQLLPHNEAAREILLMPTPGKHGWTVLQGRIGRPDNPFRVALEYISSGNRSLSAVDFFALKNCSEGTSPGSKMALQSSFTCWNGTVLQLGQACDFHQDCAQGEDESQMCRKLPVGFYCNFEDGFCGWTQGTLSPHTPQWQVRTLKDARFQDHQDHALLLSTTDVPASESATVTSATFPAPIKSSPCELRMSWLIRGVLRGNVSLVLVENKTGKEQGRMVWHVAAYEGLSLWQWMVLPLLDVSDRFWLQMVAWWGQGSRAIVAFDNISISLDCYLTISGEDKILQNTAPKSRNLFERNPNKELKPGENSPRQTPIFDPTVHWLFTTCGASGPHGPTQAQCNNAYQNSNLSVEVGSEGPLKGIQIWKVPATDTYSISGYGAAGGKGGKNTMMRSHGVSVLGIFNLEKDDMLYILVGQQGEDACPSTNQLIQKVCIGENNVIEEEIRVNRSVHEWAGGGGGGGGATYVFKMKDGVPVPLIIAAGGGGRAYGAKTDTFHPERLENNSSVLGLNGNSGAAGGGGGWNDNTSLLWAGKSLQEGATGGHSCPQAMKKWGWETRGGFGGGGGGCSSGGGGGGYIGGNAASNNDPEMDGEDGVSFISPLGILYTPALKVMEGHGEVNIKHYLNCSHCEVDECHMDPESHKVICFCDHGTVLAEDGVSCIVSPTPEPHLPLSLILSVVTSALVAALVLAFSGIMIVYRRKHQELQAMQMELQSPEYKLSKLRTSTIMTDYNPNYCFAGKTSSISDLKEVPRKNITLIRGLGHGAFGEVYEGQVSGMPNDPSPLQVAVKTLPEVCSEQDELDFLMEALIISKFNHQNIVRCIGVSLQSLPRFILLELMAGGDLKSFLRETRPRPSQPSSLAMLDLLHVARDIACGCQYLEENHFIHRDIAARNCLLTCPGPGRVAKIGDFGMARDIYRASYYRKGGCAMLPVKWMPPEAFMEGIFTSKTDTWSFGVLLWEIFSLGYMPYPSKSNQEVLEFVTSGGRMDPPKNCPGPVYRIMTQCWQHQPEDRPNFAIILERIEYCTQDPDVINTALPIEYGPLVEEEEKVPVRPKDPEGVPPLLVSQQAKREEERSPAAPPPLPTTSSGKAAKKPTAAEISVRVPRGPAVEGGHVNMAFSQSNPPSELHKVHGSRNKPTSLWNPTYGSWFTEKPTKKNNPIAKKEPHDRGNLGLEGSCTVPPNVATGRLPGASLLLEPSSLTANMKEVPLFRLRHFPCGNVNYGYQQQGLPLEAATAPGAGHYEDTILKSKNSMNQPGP
# T2 sequence (P08922 whole entry, change not shown, the tested form may be a part): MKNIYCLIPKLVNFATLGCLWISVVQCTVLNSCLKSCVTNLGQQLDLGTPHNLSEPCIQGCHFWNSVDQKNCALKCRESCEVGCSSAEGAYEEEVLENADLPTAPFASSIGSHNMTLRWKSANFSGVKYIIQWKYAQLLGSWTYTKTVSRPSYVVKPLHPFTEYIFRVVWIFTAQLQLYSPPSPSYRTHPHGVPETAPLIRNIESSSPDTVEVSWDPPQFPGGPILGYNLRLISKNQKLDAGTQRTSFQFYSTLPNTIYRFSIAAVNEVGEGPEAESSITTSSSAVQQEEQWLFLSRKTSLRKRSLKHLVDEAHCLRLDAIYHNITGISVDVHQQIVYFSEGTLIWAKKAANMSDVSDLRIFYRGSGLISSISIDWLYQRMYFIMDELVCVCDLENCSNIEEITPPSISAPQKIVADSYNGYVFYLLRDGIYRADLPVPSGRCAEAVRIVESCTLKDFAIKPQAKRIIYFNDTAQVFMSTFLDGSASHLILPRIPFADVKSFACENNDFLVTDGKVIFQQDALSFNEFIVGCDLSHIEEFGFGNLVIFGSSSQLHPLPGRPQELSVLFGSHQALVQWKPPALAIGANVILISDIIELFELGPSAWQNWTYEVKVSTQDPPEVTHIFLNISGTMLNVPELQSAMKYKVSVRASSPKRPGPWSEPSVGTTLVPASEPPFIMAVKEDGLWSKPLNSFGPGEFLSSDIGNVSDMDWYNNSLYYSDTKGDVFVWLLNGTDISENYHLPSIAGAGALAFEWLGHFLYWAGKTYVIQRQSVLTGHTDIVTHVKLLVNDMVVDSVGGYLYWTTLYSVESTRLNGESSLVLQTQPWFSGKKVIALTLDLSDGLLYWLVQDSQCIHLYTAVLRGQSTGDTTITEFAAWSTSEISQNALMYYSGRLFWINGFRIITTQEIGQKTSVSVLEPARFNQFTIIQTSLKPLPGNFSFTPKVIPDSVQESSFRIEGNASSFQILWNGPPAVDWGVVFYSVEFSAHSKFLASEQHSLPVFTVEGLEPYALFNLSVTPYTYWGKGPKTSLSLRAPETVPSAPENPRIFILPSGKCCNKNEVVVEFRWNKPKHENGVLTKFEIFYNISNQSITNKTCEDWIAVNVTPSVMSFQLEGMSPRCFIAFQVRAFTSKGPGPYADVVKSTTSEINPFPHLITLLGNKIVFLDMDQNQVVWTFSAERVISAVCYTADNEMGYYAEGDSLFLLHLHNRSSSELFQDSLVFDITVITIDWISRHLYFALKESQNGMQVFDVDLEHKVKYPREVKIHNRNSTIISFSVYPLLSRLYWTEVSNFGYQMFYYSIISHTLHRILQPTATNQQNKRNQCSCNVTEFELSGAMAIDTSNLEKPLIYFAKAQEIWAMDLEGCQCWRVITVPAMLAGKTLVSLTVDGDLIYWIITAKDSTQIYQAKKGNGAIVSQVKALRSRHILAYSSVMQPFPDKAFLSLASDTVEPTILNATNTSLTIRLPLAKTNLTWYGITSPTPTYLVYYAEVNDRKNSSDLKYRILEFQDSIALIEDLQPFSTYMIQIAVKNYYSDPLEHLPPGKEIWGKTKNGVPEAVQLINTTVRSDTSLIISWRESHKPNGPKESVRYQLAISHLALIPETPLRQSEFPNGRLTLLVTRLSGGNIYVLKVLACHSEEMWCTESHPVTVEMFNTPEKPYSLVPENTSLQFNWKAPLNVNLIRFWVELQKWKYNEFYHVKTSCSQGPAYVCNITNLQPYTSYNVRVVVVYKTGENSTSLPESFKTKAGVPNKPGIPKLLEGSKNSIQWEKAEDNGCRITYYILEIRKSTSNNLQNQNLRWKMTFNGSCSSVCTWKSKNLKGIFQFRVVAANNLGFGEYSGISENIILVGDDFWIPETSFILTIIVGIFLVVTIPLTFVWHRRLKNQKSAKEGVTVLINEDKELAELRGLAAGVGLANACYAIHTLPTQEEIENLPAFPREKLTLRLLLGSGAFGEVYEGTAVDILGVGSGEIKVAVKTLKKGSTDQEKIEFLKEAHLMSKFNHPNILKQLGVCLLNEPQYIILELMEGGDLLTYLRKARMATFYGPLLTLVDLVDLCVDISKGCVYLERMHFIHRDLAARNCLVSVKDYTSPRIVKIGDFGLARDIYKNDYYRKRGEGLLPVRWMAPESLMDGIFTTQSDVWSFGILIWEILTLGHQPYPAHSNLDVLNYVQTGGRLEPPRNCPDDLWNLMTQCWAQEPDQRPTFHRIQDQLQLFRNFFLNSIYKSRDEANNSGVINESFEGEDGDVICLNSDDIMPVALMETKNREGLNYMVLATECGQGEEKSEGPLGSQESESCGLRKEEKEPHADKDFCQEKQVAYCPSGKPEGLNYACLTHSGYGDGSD
GI50 (EML4-ALK Ba/F3) [nM],GI50 (CD74-ROS1 Ba/F3) [nM],IC50 [3] [nM],Structure (SMILES),IC50 [1] [nM],IC50 [2] [nM]
116,2.8,65,"C[C@H]1Nc2ccn3ncc(c3n2)C(=O)N[C@@H](CO)COc2ccc(F)cc21 [Compound 6, (6S,13R)-11-fluoro-6-(hydroxymethyl)-13-methyl-6,7,13,14-tetrahydro-1,15-ethenopyrazolo[4,3-f][1,4,8,10]benzoxatriazacyclotridecin-4(5H)-one]",0.5,164
6790,45.2,8030,"CC[C@H]1COc2ccc(F)cc2[C@@H](CC)Nc2ccn3ncc(c3n2)C(=O)N1 [Compound 21, (6S,13R)-6,13-diethyl-11-fluoro-6,7,13,14-tetrahydro-1,15-ethenopyrazolo[4,3-f][1,4,8,10]benzoxatriazacyclotridecin-4(5H)-one]",3,1130
96.3,0.2,80,"C[C@H]1Nc2ccn3ncc(c3n2)C(=O)NC[C@@H](CF)Oc2ccc(F)cc21 [Compound 10, (7S,13R)-11-fluoro-7-(fluoromethyl)-13-methyl-6,7,13,14-tetrahydro-1,15-ethenopyrazolo[4,3-f][1,4,8,10]benzoxatriazacyclotridecin-4(5H)-one]",1.4,57
> 10000,1000,> 10000,"CNC(=O)[C@H]1CNC(=O)c2cnn3ccc(nc23)N[C@H](C)c2cc(F)ccc2O1 [Compound 15, (7R,13R)-7-(N-methylcarboxamide)-11-fluoro-13-methyl-6,7,13,14-tetrahydro-1,15-ethenopyrazolo[4,3-f][1,4,8,10]benzoxatriazacyclotridecin-4(5H)-one]",160,4790
